From patent US8134015B2, “Compound inhibiting in vivo phosphorous transport and medicine containing the same” (Kyowa Hakko Kirin Co., Ltd., priority 2003, dated 2012)

Target: T1, rat NaPi-2b (Rattus norvegicus, UniProt Q9JJ09)
T1 construct: expressed in transfected cells; host or cells: Xenopus oocytes injected with cRNA
T1 sequence (Q9JJ09 1-695): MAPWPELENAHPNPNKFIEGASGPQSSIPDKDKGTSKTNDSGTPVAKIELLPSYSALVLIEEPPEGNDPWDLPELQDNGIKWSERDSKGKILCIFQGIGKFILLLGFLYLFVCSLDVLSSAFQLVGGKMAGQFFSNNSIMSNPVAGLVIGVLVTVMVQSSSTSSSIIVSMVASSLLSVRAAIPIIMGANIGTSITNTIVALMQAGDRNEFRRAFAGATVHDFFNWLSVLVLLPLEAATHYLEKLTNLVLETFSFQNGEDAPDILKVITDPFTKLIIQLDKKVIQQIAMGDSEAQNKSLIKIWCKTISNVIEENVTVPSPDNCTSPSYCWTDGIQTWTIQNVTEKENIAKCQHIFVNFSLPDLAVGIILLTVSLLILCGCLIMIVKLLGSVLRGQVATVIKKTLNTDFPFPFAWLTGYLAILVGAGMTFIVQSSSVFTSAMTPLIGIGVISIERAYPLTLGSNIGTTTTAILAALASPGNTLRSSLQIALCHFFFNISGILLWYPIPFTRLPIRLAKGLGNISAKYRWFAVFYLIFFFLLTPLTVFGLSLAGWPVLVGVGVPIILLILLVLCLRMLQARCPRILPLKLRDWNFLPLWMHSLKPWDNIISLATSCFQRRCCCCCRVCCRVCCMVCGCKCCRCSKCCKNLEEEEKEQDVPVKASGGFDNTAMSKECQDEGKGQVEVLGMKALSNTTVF
Assay: Sodium-dependent phosphate uptake of Xenopus oocytes which expressed NaPi-2b (32P)
Format: cell-based
Settings: for IC50: Xenopus oocytes expressing rat NaPi-2b, 32P radioactive phosphorus, read-out: IC50 (phosphate uptake inhibitory activity); for inhibition at 300 µM: phosphate uptake, oocytes expressing rat NaPi-2b, determined from inhibition curve
Method in brief: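 Rat NaPi-2b cloned from small-intestine cDNA; cRNA injected into Xenopus oocytes, expression for 2 days. Phosphate uptake inhibition measured with 32P; percent inhibition at 300 μM and 100 μM read from the same inhibition curve.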

Row | IC50 | inhibition at 300 µM | Compound
1 |  | 39.5% | COc1ccc(/C=N/NC(=O)c2c(C)csc2NC(=O)c2cccc(CSCCS(=O)(=O)O)c2)cc1 [Compound 785, 2-{3-[3-(4-Methoxy-benzylidene-hydrazinocarbonyl)-4-methyl-thiophen-2-ylcarbamoyl]-benzylsulfanyl}-ethanesulfonic acid]
2 | 31.2 µM |  | CCN(CC)CCN(C)Cc1cccc(C(=O)Nc2sccc2C(=O)N/N=C/c2ccc(F)cc2)c1 [Compound 666, 3-{[(2-Diethylamino-ethyl)-methyl-amino]-methyl}-N-[3-(4-fluoro-benzylidene-hydrazinocarbonyl)-thiophen-2-yl]-benzamide]
3 | < 0.3 µM |  | Cc1ccc(/C=N/NC(=O)c2c(C)csc2NC(=O)c2cccc(CSCCCO)c2)cc1C [Compound 557, N-[3-(3,4-Dimethyl-benzylidene-hydrazinocarbonyl)-4-methyl-thiophen-2-yl]-3-(3-hydroxy-propylsulfanylmethyl)-benzamide]
4 | 1.09 µM |  | O=C(Nc1ccc(Cl)cc1C(=O)N/N=C/c1cccc(F)c1)c1cccc(CSc2nc[nH]n2)c1 [Compound 389, N-[4-Chloro-2-(3-fluoro-benzylidene-hydrazinocarbonyl)-phenyl]-3-(1H-[1,2,4]triazol-3-ylsulfanylmethyl)-benzamide]
5 | 4.91 µM |  | O=C(Nc1ccc(Br)cc1C(=O)N/N=C/C=C/c1ccccc1)c1ccncc1 [Compound 347, N-[4-Bromo-2-(3-phenyl-allylidene-hydrazinocarbonyl)-phenyl]-isonicotinamide]
6 | < 3 µM |  | CCN(CC)CCN(C)Cc1cccc(C(=O)Nc2ccc(Cl)cc2C(=O)N/N=C/c2ccc(OC)cc2)c1 [Compound 386, N-[4-Chloro-2-(4-methoxy-benzylidene-hydrazinocarbonyl)-phenyl]-3-{[(2-diethylamino-ethyl)-methyl-amino]-methyl}-benzamide]
7 | 2.08 µM |  | Cc1ccc(/C=N/NC(=O)c2c(NC(=O)c3cccc(CN4CCC(N5CCCCC5)CC4)c3)sc3c2CCCC3)cc1C [Compound 615, 3-[1,4′]Bipiperidinyl-1′-ylmethyl-N-[3-(3,4-dimethyl-benzylidene-hydrazinocarbonyl)-4,5,6,7-tetrahydro-benzo[b]thiophen-2-yl]-benzamide]
8 | 0.89 µM |  | COc1ccc(C(=O)Nc2ccc(Cl)cc2C(=O)N/N=C/c2ccc(F)cc2)cc1OC [Compound 66, N-[4-Chloro-2-(4-fluoro-benzylidene-hydrazinocarbonyl)-phenyl]-3,4-dimethoxy-benzamide]
9 | 4.32 µM |  | CCN(CC)CCN(C)Cc1cccc(C(=O)Nc2scc(C)c2C(=O)N/N=C/c2ccc(OC)cc2)c1 [Compound 568, 3-{[(2-Diethylamino-ethyl)-methyl-amino]-methyl}-N-[3-(4-methoxy-benzylidene-hydrazinocarbonyl)-4-methyl-thiophen-2-yl]-benzamide]
10 | 4.35 µM |  | COc1cccc(CNNC(=O)c2cc(Br)ccc2NC(=O)c2ccc(CN3CCC(N4CCCCC4)CC3)cc2)c1 [Compound 378, 4-[1,4′]Bipiperidinyl-1′-ylmethyl-N-{4-bromo-2-[N′-(3-methoxy-benzyl)-hydrazinocarbonyl]-phenyl}-benzamide]
11 |  | 51.6% | CC(O)CN(Cc1cccc(C(=O)Nc2sccc2C(=O)N/N=C/c2ccc(Cl)c(C(F)(F)F)c2)c1)CC(C)O (stereo not shown) [Compound 779, 3-{[Bis-(2-hydroxy-propyl)-amino]-methyl}-N-[3-(4-chloro-3-trifluoromethyl-benzylidene-hydrazinocarbonyl)-thiophen-2-yl]-benzamide]
12 | 1.92 µM |  | O=C(Nc1ccc(N2CCCCC2)cc1C(=O)N/N=C/c1ccc(F)cc1)c1cccc(CN2CCN(CCO)CC2)c1 [Compound 866, N-[2-(4-Fluoro-benzylidene-hydrazinocarbonyl)-4-piperidin-1-yl-phenyl]-3-[4-(2-hydroxy-ethyl)-piperazin-1-ylmethyl]-benzamide]
13 | 3 µM |  | Cc1ccc(/C=N/NC(=O)c2ccccc2NC(=O)c2ccncc2)cc1 [Compound 137, N-[2-(4-Methyl-benzylidene-hydrazinocarbonyl)-phenyl]-isonicotinamide]
14 | 25.5 µM |  | O=C(Nc1ccc(N2CCCC(C(=O)O)C2)cc1C(=O)N/N=C/c1ccc(Cl)c(C(F)(F)F)c1)c1cccc(CSCCO)c1 (stereo not shown) [Compound 925, 1-{3-(4-Chloro-3-trifluoromethyl-benzylidene-hydrazinocarbonyl)-4-[3-(2-hydroxy-ethylsulfanylmethyl)-benzoylamino]-phenyl}-piperidine-3-carboxylic acid]

Second part, the molecule before the results:

Row | Compound | IC50 | inhibition at 300 µM
15 | COc1cccc(/C=N/NC(=O)c2cc(Cl)ccc2NC(=O)c2cccc(CN3CCC(N4CCCCC4)CC3)c2)c1 [Compound 374, 3-[1,4′]Bipiperidinyl-1′-ylmethyl-N-[4-chloro-2-(3-methoxy-benzylidene-hydrazinocarbonyl)-phenyl]-benzamide] | 9.25 µM | 
16 | O=c1c2cc(Br)ccc2nc(-c2cccc(CSCCO)c2)n1/N=C/c1ccc(F)cc1 [Compound 695, 6-Bromo-3-[(4-fluoro-benzylidene-)-amino]-2-[3-(2-hydroxy-ethylsulfanylmethyl)-phenyl]-3H-quinazolin-4-one] | 6.76 µM | 
17 | Cc1csc(NC(=O)c2cccc(CN3CCC(N4CCCCC4)CC3)c2)c1C(=O)N/N=C/c1ccc(Cl)c(C(F)(F)F)c1 [Compound 573, 3-[1,4′]Bipiperidinyl-1′-ylmethyl-N-[3-(4-chloro-3-trifluoromethyl-benzylidene-hydrazinocarbonyl)-4-methyl-thiophen-2-yl]-benzamide] | 1.75 µM | 
18 | COc1ccc(C(=O)Nc2ccccc2C(=O)N/N=C/c2ccco2)cc1OC [Compound 21, N-[2-(Furan-2-ylmethylene-hydrazinocarbonyl)-phenyl]-3,4-dimethoxy-benzamide] | 21.5 µM | 
19 | O=C(Nc1ccc(Br)cc1C(=O)N/N=C/c1cccc(F)c1)c1ccno1 [Compound 510, Isoxazole-5-carboxylic acid [4-bromo-2-(3-fluoro-benzylidene-hydrazinocarbonyl)-phenyl]-amide] | 1.48 µM | 
20 | COc1ccc(C(=O)Nc2ccccc2C(=O)N/N=C/c2cc(C(F)(F)F)ccc2F)cc1OC [Compound 44, N-[2-(2-Fluoro-5-trifluoromethyl-benzylidene-hydrazinocarbonyl)-phenyl]-3,4-dimethoxy-benzamide] | 4.71 µM | 
21 | Cc1ccc(/C=N/NC(=O)c2cc(OCCCCF)ccc2NC(=O)c2cccc(CSCCO)c2)cc1C [Compound 1053, N-[2-(3,4-Dimethyl-benzylidene-hydrazinocarbonyl)-4-(4-fluoro-butoxy)-phenyl]-3-(2-hydroxy-ethylsulfanylmethyl)-benzamide] | < 1 µM | 
22 | O=C(Nc1ccc(Br)cc1C(=O)N/N=C/c1cccc(F)c1)c1ccc(CN2CCN(CCO)CC2)cc1 [Compound 320, N-[4-Bromo-2-(3-fluoro-benzylidene-hydrazinocarbonyl)-phenyl]-4-[4-(2-hydroxy-ethyl)-piperazin-1-ylmethyl]-benzamide] | 4.09 µM | 
23 | COc1cccc(/C=N/NC(=O)c2cc(Br)ccc2NC(=O)c2ccc(CN(C)CC(O)c3ccc(O)cc3)cc2)c1 (stereo not shown) [Compound 727, N-[4-Bromo-2-(3-methoxy-benzylidene-hydrazinocarbonyl)-phenyl]-4-({[2-hydroxy-2-(4-hydroxy-phenyl)-ethyl]-methyl-amino}-methyl)-benzamide] |  | 67.7%
24 | O=C(Nc1ccc(Br)cc1C(=O)N/N=C/c1cccc(F)c1)c1cccc(C[S+]([O-])c2nc[nH]n2)c1 (stereo not shown) [Compound 341, N-[4-Bromo-2-(3-fluoro-benzylidene-hydrazinocarbonyl)-phenyl]-3-(1H-[1,2,4]triazole-3-sulfinylmethyl)-benzamide] | < 3 µM | 
25 | COc1ccc(/C=N/NC(=O)c2cc(Br)ccc2NC(=O)c2ccc(CNCCCN(C)c3ccccc3)cc2)cc1 [Compound 762, N-[4-Bromo-2-(4-methoxy-benzylidene-hydrazinocarbonyl)-phenyl]-4-{[3-(methyl-phenyl-amino)-propylamino]-methyl}-benzamide] |  | 52.1%
26 | O=C(Nc1ccc(Cl)cc1C(=O)N/N=C/c1cccc(F)c1)c1cnc2ccccc2n1 [Compound 1004, Quinoxaline-2-carboxylic acid [4-chloro-2-(3-fluoro-benzylidene-hydrazinocarbonyl)-phenyl]-amide] |  | 34.2%
27 | O=c1c2cc(Br)ccc2nc(-c2cccc(CSCCO)c2)n1/N=C/c1ccc(Cl)c(C(F)(F)F)c1 [Compound 698, 6-Bromo-3-[(4-chloro-3-trifluoromethyl-benzylidene-)-amino]-2-[3-(2-hydroxy-ethylsulfanylmethyl)-phenyl]-3H-quinazolin-4-one] | < 3 µM | 
28 | CC(O)CN(Cc1cccc(C(=O)Nc2ncccc2C(=O)N/N=C/c2cccc(F)c2)c1)CC(C)O (stereo not shown) [Compound 964, 3-{[Bis-(2-hydroxy-propyl)-amino]-methyl}-N-[3-(3-fluoro-benzylidene-hydrazinocarbonyl)-pyridin-2-yl]-benzamide] |  | 67.5%
